Test results taken from patent US20110251220A1, “Pharmaceutical compositions comprising gamma secretase modulators” (priority 2008, published 2011).

Key:
Format in all cases: cell-based, human
[1] = tested on: OPM-2 cells; experiment: Proliferation/viability assay (CellTiter-Glo), OPM-2; details: OPM-2, 48 h treatment
Procedure: (§1) Human MM cell lines used were as follows: NCI-H929, OPM-2, LP-1, RPMI-8226, U266 (DSMZ, Braunschweig, Germany). Cell lines were cultured in RPMI 1640 medium (Biochrom, Berlin, Germany) supplemented with 10% heat-inactivated fetal calf serum (FCS, Gibco, Karlsruhe, Germany), 1 mM sodium pyruvate and 100 units/ml penicillin and 100 μg/ml streptomycin (Gibco). Human osteoclasts were obtained as described in the reference of Zavrski I, Krebbel H, Wildemann B, et al. Proteasome inhibitors abrogate osteoclast differentiation and osteoclast function. Biochem Biophys Res Commun. 2005; 333:200-205. Briefly, peripheral blood mononuclear cells (PBMC) were isolated from whole blood of healthy volunteers, using a Ficoll-Hypaque density gradient. The adherent fraction of the isolated mononuclear cells was cultured for 21 days in MEM medium (Sigma-Aldrich Chemie, Taufkirchen, Germany) supplemented with 10% FCS, 100 U/ml penicillin, 100 μg/ml streptomycin, 50 ng/ml M-CSF, and 25 ng/ml RANKL (osteoclastogenic medium), before coculture experiments and treatment with the inventive compounds started. […]
(§2) For assaying proliferation/viability of cells CellTiter-Glo Luminescent Cell Viability Assay (Promega, Mannheim, Germany) was used. In this assay the number of viable cells at a given time point is determined by quantification of ATP present, which serves as a measure of metabolically active cells. […]

[2] = tested on: U266 cells; experiment: Proliferation assay (CellTiter-Glo), U266 (Notch1 negative control); details: U266 (lacking Notch1), 48 h treatment
Procedure: as §1, §2

[3] = tested on: OPM-2 cocultured with OCL; experiment: OPM-2/OCL coculture, apoptosis of OPM-2 by AnnexinV-FITC/PI staining; details: 60 μM GSI15, 48 h
Procedure: as §1, with “gradient.” for “gradient. The adherent fraction of the isolated mononuclear cells was cultured for 21 days in MEM medium (Sigma-Aldrich Chemie, Taufkirchen, Germany) supplemented with 10% FCS, 100 U/ml penicillin, 100 μg/ml streptomycin, 50 ng/ml M-CSF, and 25 ng/ml RANKL (osteoclastogenic medium), before coculture experiments and treatment with the inventive compounds started.”
For cell cycle analysis 2×10^5 cells were spun down, medium was aspirated and cells washed with PBS. […] After 10 minutes incubation in the dark at room temperature, cells were analyzed by flow cytometry. The amount of apoptotic cells was determined by AnnexinV/propidium iodide staining using Human AnnexinV-FITC Kit (Bender Medsystems, Vienna, Austria), according to manufacturer's protocol. […] Cells were then spun down again, resuspended in binding buffer containing PI and analyzed by flow cytometry.

[4] = tested on: OBL; experiment: Viability assay, OBL
Procedure: (§3) For assaying proliferation/viability of cells CellTiter-Glo Luminescent Cell Viability Assay (Promega, Mannheim, Germany) was used. In this assay the number of viable cells at a given time point is determined by quantification of ATP present, which serves as a measure of metabolically active cells. The assay was carried out according to manufacturer's protocol. Briefly, cells were plated in 96-well plates at 10,000 cells per well in 100 μl medium and treated with indicated amounts of GSI15, with DMSO as solvent control or left untreated. Each treatment was done in four independent replicates in different wells. 24 h and 48 h after start of treatment 30 μl per well were transferred into an opaque-walled plate and lysed using CellTiter-Glo solution. Luminescence was recorded and integrated for two seconds per well. Average values were calculated and normalized to the respective untreated sample.

[5] = tested on: MSC; experiment: Viability assay, MSC
Procedure: as §3

CC(C)c1ccc(S(=O)(=O)Nc2cccnc2Oc2ccc(Cl)cc2)cc1 [Example 1, N-(2-(4-chlorophenoxy)pyridin-3-yl)-4-isopropylbenzenesulfonamide]
concentration of maximum effect on proliferation [1]: 60 µM | proliferation [1]: dose-dependent reduction of proliferation | proliferation [2]: almost not affected | overall amount of apoptotic cells [3]: 83% | viability [4]: no difference between untreated and GSI15 treated | viability [5]: no difference between untreated and GSI15 treated
